Eleven compounds from ChEMBL document CHEMBL1201862, “PubChem BioAssay data set” (2004) can be followed below.

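96-well plates; 48 h exposure; 5 concentrations. Endpoints by linear interpolation between flanking doses. Not reached: highest tested concentration assigned. The concentration for 50% growth inhibition is given as GI50.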 Active and inactive are the calls of the source. No stated cut-off is given here; in the data, active = GI50 up to about 1.1 µM and inactive = higher.

Common to all, as to assay: NCI anticancer screen, dose series, 48 h
Assay [1] has as its system ACHN.
The subject of assay [2] is BT-549.
Assay [3] has as its system HCC 2998.
In assay [4] the test system is HCT-15.
Assay [5] relates to HT-29.
In assay [6] the test system is K562.
The test system of assay [7] is KM12.
Assay [8] deals with LOX IMVI.
Assay [9] relates to MCF7.
Assay [10] relates to MDA-MB-435.
Assay [11] deals with Malme-3M.
For assay [12], the system named is OVCAR-4.
Assay [13] has as its system OVCAR-5.
For assay [14], the system named is RXF 393.
Assay [15] has as its system SK-OV-3.
The test system of assay [16] is TK-10.
Assay [17] relates to U-251.
The test system of assay [18] is UO-31.
The test system of assay [19] is HOP-62.
Assay [20] relates to SF-268.

For the compound `CCOC(C[Se]CC(OCC)OCC)OCC`, the GI50 is > 100 µM (inactive) in assay [1]; 31.8 µM (inactive) in assay [2]; > 100 µM (inactive) in [3]; 57.9 µM in assay [4]; 64.9 µM (inactive) in assay [5]; > 100 µM (inactive) in [6]. The GI50 was 53.2 µM (inactive) in assay [7]; 22.9 µM (inactive) in assay [8]; 48.3 µM (inactive) in assay [9]; 36.4 µM (inactive) in assay [10]; 61.5 µM (inactive) in assay [11]; 45.3 µM (inactive) in assay [12]. Moreover, the GI50 is 96.6 µM (inactive) in assay [13]; 28.4 µM (inactive) in assay [14]; 74.6 µM (inactive) in [15]; 53.6 µM (inactive) in assay [16]; 14.6 µM (inactive) in [17]; 38.6 µM (inactive) in assay [18].

For `[N-]=[N+]=C(C(=O)CN1CCCC1=O)S(=O)(=O)c1ccccc1`, the GI50 in assay [1] is > 100 µM (inactive); in assay [2], > 100 µM (inactive); in assay [3] it was > 100 µM (inactive); in [4] it was over 100 µM; in [19], > 100 µM (inactive); in assay [5], > 100 µM (inactive). For the same compound, the GI50 in assay [6], in [7], in [8], in assay [9], in assay [10] and in assay [11] was > 100 µM (inactive) each time. In addition, the GI50 in [13], in assay [14], in [20], in assay [16], in assay [17] and in [18] was > 100 µM (inactive) throughout.

Consider `CCOC(=O)NC(Nc1ccc(F)cc1F)(C(F)(F)F)C(F)(F)F`, for which the GI50 in [1] was > 100 µM (inactive); in assay [2] it was > 100 µM (inactive); in assay [3], > 100 µM (inactive); in assay [4], over 100 µM; in assay [19], > 100 µM (inactive); in assay [5], > 100 µM (inactive). Moreover, the GI50 in [6], in assay [7], in [8], in [9], in assay [10] and in assay [11] was > 100 µM (inactive) in each case. For the same compound, the GI50 in assay [13], in assay [14], in assay [20], in [15], in [16] and in [17] was > 100 µM (inactive) each time. Further, the GI50 in [18] was > 100 µM (inactive).

As for `COc1ccc(/C=C2\CCS(=O)(=O)c3ccccc3C2=O)cc1OC`, the GI50 in assay [1] is 27.5 µM (inactive); in assay [2], 16.6 µM (inactive); in [3], 14.9 µM (inactive); in assay [4], 11.9 µM; in assay [19], 38.5 µM (inactive); in assay [5], 36.7 µM (inactive). Moreover, the GI50 in [6] was > 100 µM (inactive); in assay [7], 28.4 µM (inactive); in assay [8], 19.1 µM (inactive); in assay [9], 12.2 µM (inactive); in assay [10] it was 30.7 µM (inactive); in assay [12], 17.9 µM (inactive). For the same compound, the GI50 is 68.1 µM (inactive) in [13]; 54.8 µM (inactive) in [14]; 29.3 µM (inactive) in [20]; 51.3 µM (inactive) in [15]; 26.9 µM (inactive) in [16]; 31.9 µM (inactive) in [17]. The GI50 in [18] was 31 µM (inactive).

Turning to `CCOC(=O)C(NC(=O)OCc1ccccc1)C(=O)O` (centres undefined), the GI50 was > 100 µM (inactive) in assay [1]; > 100 µM (inactive) in assay [2]; > 100 µM (inactive) in [3]; over 100 µM in [4]; > 100 µM (inactive) in [19]; > 100 µM (inactive) in assay [5]. Further, the GI50 in assay [6], in [7], in [8], in assay [9], in assay [10] and in assay [11] was > 100 µM (inactive) throughout. Moreover, the GI50 in assay [12], in assay [13], in [14], in assay [20], in assay [16] and in [17] was > 100 µM (inactive) each time. In addition, the GI50 in assay [18] is > 100 µM (inactive).

Regarding `Cc1ccc(C2(c3ccc(C)cc3)SC(=C(C#N)C#N)c3ccccc32)cc1`, the GI50 was > 100 µM (inactive) in assay [1]; > 100 µM (inactive) in [2]; 89.7 µM (inactive) in assay [3]; 22.5 µM in assay [4]; 31.4 µM (inactive) in [19]; 55.6 µM (inactive) in [5]. The GI50 in [6] was 7.67 µM (inactive); in assay [7], 23 µM (inactive); in assay [9], 81.1 µM (inactive); in [10] it was 5.31 µM (inactive); in assay [11] it was 87.9 µM (inactive); in assay [13] it was > 100 µM (inactive). Further, the GI50 in assay [14] was > 100 µM (inactive); in assay [20], > 100 µM (inactive); in assay [15] it was > 100 µM (inactive); in assay [16], > 100 µM (inactive); in assay [17] it was 18.1 µM (inactive); in [18], > 100 µM (inactive).

Consider `O=c1[nH]nc(Cc2ccccc2)n1/N=C/c1c(O)ccc2ccccc12`, for which the GI50 is 22 µM (inactive) in assay [1]; 82.4 µM (inactive) in [2]; 33.4 µM (inactive) in [3]; 51.6 µM in assay [4]; 28.4 µM (inactive) in assay [5]; 23.2 µM (inactive) in [6]. The GI50 in [7] was 19.7 µM (inactive); in assay [8], 54 µM (inactive); in assay [9], 37.9 µM (inactive); in assay [10] it was 29.2 µM (inactive); in assay [11], 20.9 µM (inactive); in assay [12] it was 17.2 µM (inactive). In addition, the GI50 in [14] was 22.3 µM (inactive); in assay [20] it was 24.6 µM (inactive); in assay [16] it was 33 µM (inactive); in assay [17] it was 18.2 µM (inactive); in [18], 36.1 µM (inactive).

For `COc1cc(C(=O)n2c3ccc(Br)cc3c3nc4ccccc4nc32)cc(OC)c1OC`, the GI50 in [1] is 37.9 µM (inactive); in assay [2], 37.3 µM (inactive); in assay [3], > 100 µM (inactive); in assay [4] it was over 100 µM; in [19], > 100 µM (inactive); in [5], > 100 µM (inactive). Further, the GI50 in assay [6], in assay [7], in assay [8], in assay [9], in [10] and in assay [11] was > 100 µM (inactive) in each case. Further, the GI50 was > 100 µM (inactive) in assay [12]; > 100 µM (inactive) in assay [13]; 19.7 µM (inactive) in assay [14]; 60.5 µM (inactive) in [20]; 32.7 µM (inactive) in [16]; > 100 µM (inactive) in assay [17]. Also, the GI50 in [18] is > 100 µM (inactive).

Consider `CN(C)C(=O)Oc1ccc(-c2cn3cc(NC(=O)c4ccccc4)ccc3n2)cc1`, for which the GI50 in [1] was > 100 µM (inactive); in [2], 80.4 µM (inactive); in assay [3] it was 52 µM (inactive); in assay [4], over 100 µM; in [19], > 100 µM (inactive); in [5], 87.3 µM (inactive). Besides, the GI50 in assay [6] is 19.5 µM (inactive); in assay [7] it was 55.5 µM (inactive); in assay [8], 53 µM (inactive); in assay [9] it was 31.7 µM (inactive); in [10], 85.7 µM (inactive); in [12], 55 µM (inactive). The GI50 was > 100 µM (inactive) in assay [13]; > 100 µM (inactive) in assay [14]; 80.4 µM (inactive) in assay [20]; > 100 µM (inactive) in assay [15]; > 100 µM (inactive) in assay [16]; 45.3 µM (inactive) in assay [17]. The GI50 in assay [18] was > 100 µM (inactive).

For `C=C(CO)[C@H]1CC/C(C)=C/CC/C(C)=C/C/C=C(\C)[C@H](O)C1`, the GI50 in assay [1] was 26.3 µM (inactive); in assay [2], 23.1 µM (inactive); in [3], 15.2 µM (inactive); in assay [4] it was 50 µM; in assay [19], > 100 µM (inactive); in assay [5], 18.5 µM (inactive). Moreover, the GI50 in assay [6] was 37.8 µM (inactive); in assay [7], 15.9 µM (inactive); in [8], 27.5 µM (inactive); in [9] it was 26 µM (inactive); in [10] it was 18.6 µM (inactive); in assay [12] it was 46.7 µM (inactive). The GI50 in assay [13] is 47.1 µM (inactive); in assay [14], 19.9 µM (inactive); in assay [20], 22.2 µM (inactive); in [15], > 100 µM (inactive); in assay [16] it was 20.6 µM (inactive); in assay [17] it was 19.1 µM (inactive). Further, in assay [18], the GI50 was 30.9 µM (inactive).

With `CC(=O)c1ccc(Nc2c3c(nc4ccccc24)CCCC3)cc1`, the GI50 in [1] is 38.3 µM (inactive); in assay [2] it was 9.79 µM (inactive); in [3] it was 42.1 µM (inactive); in assay [4] it was 13.7 µM; in assay [19] it was 10.3 µM (inactive); in assay [5], 10.2 µM (inactive). The GI50 in assay [6] was 16.4 µM (inactive); in assay [7] it was 7.29 µM (inactive); in assay [8], 10 µM (inactive); in [9], 18.7 µM (inactive); in assay [10], 1.96 µM (inactive); in [12] it was 41.9 µM (inactive). The GI50 in assay [13] is 13.5 µM (inactive); in assay [14], 20.5 µM (inactive); in assay [20], 40.2 µM (inactive); in assay [15] it was 26.7 µM (inactive); in assay [16] it was 42.5 µM (inactive); in assay [17], 19.1 µM (inactive). For the same compound, in assay [18], the GI50 is 5.58 µM (inactive).
